The results in this text go back to ChEMBL document CHEMBL5505952, “Targeting SARS-CoV-2 entry processes: The promising potential and future of host-targeted small-molecule inhibitors” (Eur J Med Chem, 2024).

The subject of experiment [1] is SARS-CoV-2. The experiment can be described thus: microbe, parasite or virus in culture. The note with it: Severe acute respiratory syndrome coronavirus 2, Vero C1008, 24 h.
The subject of experiment [2] is SARS-CoV-2. Kind of experiment: Antiviral activity against VSV-S pseudotyped SARS-CoV-2 infected in human Calu-3 cells assessed as inhibition of viral growth. The experiment is classed as functional, organism-based. The note with it: Severe acute respiratory syndrome coronavirus 2, Calu-3.
Experiment [3] concerns SARS-CoV-2. Kind of experiment: Antiviral activity against SARS-CoV-2 WA1/2020 infected in human Calu-3 cells preincubated for 2 hrs followed by viral infection and measured after 48 hrs by microscopy analysis. The settings on record: Severe acute respiratory syndrome coronavirus 2, WA1/2020, Calu-3. The experiment is classed as functional, organism-based.
Experiment [4] deals with SARS-CoV-2. Format: functional, organism-based. The settings on record: Severe acute respiratory syndrome coronavirus 2, Vero C1008.
Experiment [5] addresses Spike glycoprotein/Angiotensin-converting enzyme 2 (Severe acute respiratory syndrome coronavirus 2, UniProt P0DTC2+Q9BYF1). The experiment can be described thus: Inhibition of SARS-CoV-2 spike protein RBD- human ACE2 interaction. Format: protein assay.
The test system of experiment [6] is Respiratory syncytial virus. Kind of experiment: microbe, parasite or virus in culture. The note with it: human respiratory syncytial virus, A2, HEp-2.
Experiment [7] concerns RAW264.7. The experiment can be described thus: Antiinflammatory activity in mouse RAW264.7 cells assessed as effect on LPS induced IL-12p40 level measured after 24 hrs by RT-qPCR analysis. Format: functional, cell-based. The note with it: RAW264.7, 24 h. Background: Real-time PCR tracks product formation cycle by cycle.
In experiment [8] the test system is SARS-CoV-2. The experiment is classed as functional, organism-based. The settings on record: Severe acute respiratory syndrome coronavirus 2, Vero C1008, 72 h.
For experiment [9], the target named is Procathepsin L (Homo sapiens, UniProt P07711). The experiment can be described thus: Inhibition of human recombinant Cathepsin L using Z-Phe-Arg-AMC as substrate incubated for 60 mins by fluorescence spectrophotometric analysis.
Procathepsin L, sequence (P07711 whole entry): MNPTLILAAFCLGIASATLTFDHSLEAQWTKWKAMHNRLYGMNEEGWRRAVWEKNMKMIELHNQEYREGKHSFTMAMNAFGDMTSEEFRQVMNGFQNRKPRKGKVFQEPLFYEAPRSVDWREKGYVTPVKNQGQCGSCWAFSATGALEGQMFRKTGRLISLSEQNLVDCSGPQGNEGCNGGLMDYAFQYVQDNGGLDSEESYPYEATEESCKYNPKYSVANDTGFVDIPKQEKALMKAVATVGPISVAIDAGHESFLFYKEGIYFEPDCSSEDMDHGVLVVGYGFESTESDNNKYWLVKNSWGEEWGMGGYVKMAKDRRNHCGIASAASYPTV
The subject of experiment [10] is SARS-CoV-2. Format: functional, organism-based. The settings on record: Severe acute respiratory syndrome coronavirus 2, Wuhan-Hu-1, Vero C1008.
For experiment [11], the target named is Replicase polyprotein 1ab (Severe acute respiratory syndrome coronavirus 2, UniProt P0DTD1). The experiment can be described thus: Inhibition of SARS-Cov-2 Main protease by FRET assay.
Experiment [12] has as its system SARS-CoV-2. The experiment is classed as functional, organism-based. The note with it: Severe acute respiratory syndrome coronavirus 2, Vero C1008, 48 h.
Experiment [13] has as its target T1, 1-phosphatidylinositol 3-phosphate 5-kinase (Homo sapiens, UniProt Q9Y2I7). The experiment can be described thus: Binding affinity to N-terminal His-tagged human PIKfyve expressed in Sf9 cells assessed as dissociation constant.
Experiment [14] relates to SARS-CoV-2. The experiment is classed as functional, organism-based. The note with it: Severe acute respiratory syndrome coronavirus 2, Vero C1008, 48 h. This is another data set of the same source.
The target of experiment [15] is T1, 1-phosphatidylinositol 3-phosphate 5-kinase. Kind of experiment: Inhibition of PIKfyve (unknown origin).
Experiment [16] has as its system SARS-CoV-2. The experiment is classed as functional, organism-based. The note with it: Severe acute respiratory syndrome coronavirus 2, NRC-03-nhCoV, Vero C1008.
Experiment [17] relates to SARS-CoV-2. The experiment can be described thus: microbe, parasite or virus in culture. The note with it: Severe acute respiratory syndrome coronavirus 2, Vero C1008, 24 h. This is another data set of the same source.
In experiment [18] the test system is SARS-CoV-2. The experiment can be described thus: microbe, parasite or virus in culture. The note with it: Severe acute respiratory syndrome coronavirus 2, Calu-3, 48 h.
Experiment [19] concerns SARS-CoV-2. The experiment can be described thus: microbe, parasite or virus in culture. The settings on record: Severe acute respiratory syndrome coronavirus 2, Huh-7.

*1 amine or outer side, *2 acyl side, *3 side chain or, on linkers, in order; H or OH if unused. Where a SMILES comes first, the peptide text is derived from it. [ ]: non-standard residue; d: D form. The star is where a group is joined. X1 = N=C(N)NCCC[C@H](N[*:1])C(=O)c1nc2ccc(C(=O)[*:2])cc2s1; Nle = CCCC[C@H](N)C(=O)O; Cbz = O=C(OCc1ccccc1)*

T1 sequence (Q9Y2I7 whole entry): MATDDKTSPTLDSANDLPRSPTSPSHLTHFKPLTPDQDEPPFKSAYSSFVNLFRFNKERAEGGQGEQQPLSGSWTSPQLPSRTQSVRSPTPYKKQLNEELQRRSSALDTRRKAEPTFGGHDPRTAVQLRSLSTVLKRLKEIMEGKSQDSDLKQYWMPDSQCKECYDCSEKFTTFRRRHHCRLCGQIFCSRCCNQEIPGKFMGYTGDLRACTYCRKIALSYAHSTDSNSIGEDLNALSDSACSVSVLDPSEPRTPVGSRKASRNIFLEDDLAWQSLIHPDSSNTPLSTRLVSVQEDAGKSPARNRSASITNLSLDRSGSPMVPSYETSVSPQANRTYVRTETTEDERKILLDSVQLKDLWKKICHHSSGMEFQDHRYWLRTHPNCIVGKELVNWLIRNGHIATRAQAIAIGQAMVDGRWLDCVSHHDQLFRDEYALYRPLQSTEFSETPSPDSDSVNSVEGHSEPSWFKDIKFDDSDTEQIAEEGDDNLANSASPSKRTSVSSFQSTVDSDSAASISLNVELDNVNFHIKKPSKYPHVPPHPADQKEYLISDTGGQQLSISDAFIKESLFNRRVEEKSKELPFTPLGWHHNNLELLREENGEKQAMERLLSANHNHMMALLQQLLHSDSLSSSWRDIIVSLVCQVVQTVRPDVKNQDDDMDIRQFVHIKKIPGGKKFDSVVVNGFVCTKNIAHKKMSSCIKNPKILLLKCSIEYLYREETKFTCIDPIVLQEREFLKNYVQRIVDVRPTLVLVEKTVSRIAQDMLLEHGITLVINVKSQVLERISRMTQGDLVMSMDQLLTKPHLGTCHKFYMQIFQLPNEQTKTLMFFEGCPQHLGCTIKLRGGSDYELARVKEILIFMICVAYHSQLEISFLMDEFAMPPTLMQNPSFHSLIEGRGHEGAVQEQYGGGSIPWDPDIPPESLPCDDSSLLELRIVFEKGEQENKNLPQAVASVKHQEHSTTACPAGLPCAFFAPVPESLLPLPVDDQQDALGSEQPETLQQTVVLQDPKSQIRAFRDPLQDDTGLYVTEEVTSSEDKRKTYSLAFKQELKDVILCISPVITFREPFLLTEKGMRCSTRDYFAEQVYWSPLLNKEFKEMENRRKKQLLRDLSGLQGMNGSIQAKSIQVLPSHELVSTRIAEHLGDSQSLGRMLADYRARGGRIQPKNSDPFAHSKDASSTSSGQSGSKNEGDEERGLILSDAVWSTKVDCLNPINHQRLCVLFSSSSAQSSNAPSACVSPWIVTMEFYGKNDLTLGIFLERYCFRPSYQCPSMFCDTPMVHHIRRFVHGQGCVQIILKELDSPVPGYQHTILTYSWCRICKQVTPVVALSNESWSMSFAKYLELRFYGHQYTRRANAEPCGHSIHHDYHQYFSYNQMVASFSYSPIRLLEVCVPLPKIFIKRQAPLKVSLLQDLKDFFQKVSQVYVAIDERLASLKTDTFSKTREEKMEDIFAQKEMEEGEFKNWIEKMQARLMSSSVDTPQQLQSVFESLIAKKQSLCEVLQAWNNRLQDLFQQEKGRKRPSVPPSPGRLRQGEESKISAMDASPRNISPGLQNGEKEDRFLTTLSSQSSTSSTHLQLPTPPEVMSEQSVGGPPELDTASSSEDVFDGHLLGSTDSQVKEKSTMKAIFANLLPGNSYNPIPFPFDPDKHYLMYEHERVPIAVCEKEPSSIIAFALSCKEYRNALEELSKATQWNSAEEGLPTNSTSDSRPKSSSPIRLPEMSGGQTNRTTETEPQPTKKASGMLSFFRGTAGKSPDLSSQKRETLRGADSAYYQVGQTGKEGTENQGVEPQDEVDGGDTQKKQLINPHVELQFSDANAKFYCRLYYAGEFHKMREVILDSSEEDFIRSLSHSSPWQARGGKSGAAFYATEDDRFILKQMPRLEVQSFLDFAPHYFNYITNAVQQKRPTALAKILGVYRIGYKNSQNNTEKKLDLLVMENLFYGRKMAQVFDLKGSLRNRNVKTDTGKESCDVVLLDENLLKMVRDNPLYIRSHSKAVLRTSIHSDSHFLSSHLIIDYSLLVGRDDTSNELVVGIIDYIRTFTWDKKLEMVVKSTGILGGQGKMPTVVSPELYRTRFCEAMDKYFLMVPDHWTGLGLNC
Spike glycoprotein/Angiotensin-converting enzyme 2, sequence (Q9BYF1 18-805 limits assumed, other chains not shown): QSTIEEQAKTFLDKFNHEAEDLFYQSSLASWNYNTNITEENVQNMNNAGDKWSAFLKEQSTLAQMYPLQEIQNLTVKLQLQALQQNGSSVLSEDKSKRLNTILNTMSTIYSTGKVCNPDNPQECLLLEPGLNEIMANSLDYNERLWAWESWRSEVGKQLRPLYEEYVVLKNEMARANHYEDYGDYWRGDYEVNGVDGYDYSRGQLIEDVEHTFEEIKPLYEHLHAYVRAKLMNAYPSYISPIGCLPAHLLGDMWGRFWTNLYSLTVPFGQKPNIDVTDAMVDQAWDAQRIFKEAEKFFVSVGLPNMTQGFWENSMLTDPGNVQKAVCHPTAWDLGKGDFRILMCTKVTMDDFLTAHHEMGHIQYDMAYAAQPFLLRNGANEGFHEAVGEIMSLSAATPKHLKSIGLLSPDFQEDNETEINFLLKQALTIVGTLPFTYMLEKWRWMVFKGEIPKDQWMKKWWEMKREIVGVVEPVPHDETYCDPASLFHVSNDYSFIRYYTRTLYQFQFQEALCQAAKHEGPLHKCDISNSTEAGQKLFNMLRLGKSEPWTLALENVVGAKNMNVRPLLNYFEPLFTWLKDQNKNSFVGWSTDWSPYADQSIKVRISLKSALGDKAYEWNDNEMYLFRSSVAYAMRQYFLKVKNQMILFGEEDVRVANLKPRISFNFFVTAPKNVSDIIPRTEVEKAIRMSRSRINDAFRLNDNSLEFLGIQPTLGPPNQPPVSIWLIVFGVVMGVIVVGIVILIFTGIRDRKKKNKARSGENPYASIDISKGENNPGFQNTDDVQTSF

Turning to `Cn1nc(C(C)(C)C)cc1C(=O)N[C@@H](Cc1cccc(Cl)c1)C(=O)NCC#N`, a half-maximal response in experiment [1] (EC50) required 0.14 µM.

With `CC[C@@H](C)[C@H](NC(C)=O)C(=O)N[C@@H](CCC(N)=O)C(=O)N[C@@H](Cc1ccccc1)C(=O)N[C@@H](CCCNC(=N)N)C(=O)c1nc2ccccc2s1`, the EC50 – broadly, the concentration that produces a half-maximal response – in experiment [2] is 0.0036 µM. Half-maximal inhibition in experiment [3] (IC50) required 0.102 µM.

As to `CC(C)[C@H](NC(=O)OCc1ccccc1)C(=O)N[C@H](C=O)Cc1ccccc1` (Cbz-Val-Phe-aldehyde), in experiment [1], the EC50 was 1.56 µM.

`CC(C)CCC[C@@H](C)[C@H]1CC[C@H]2[C@@H]3CC[C@H]4C[C@@H](O[C@@H]5O[C@H](COS(=O)(=O)[O-])[C@@H](O[C@H]6O[C@H](COS(=O)(=O)[O-])[C@@H](O[C@H]7O[C@H](COS(=O)(=O)[O-])[C@@H](O[C@H]8O[C@H](COS(=O)(=O)[O-])[C@@H](OS(=O)(=O)[O-])[C@H](OS(=O)(=O)[O-])[C@H]8OS(=O)(=O)[O-])[C@H](OS(=O)(=O)[O-])[C@H]7OS(=O)(=O)[O-])[C@H](OS(=O)(=O)[O-])[C@H]6OS(=O)(=O)[O-])[C@H](OS(=O)(=O)[O-])[C@H]5OS(=O)(=O)[O-])CC[C@]4(C)[C@H]3CC[C@]12C.[Na+].[Na+].[Na+].[Na+].[Na+].[Na+].[Na+].[Na+].[Na+].[Na+].[Na+].[Na+].[Na+]` had a half-maximal effective concentration (EC50) in experiment [4] of 0.9 µg/mL. The IC50 (as a rule, the concentration at which inhibition is half-maximal) was 4.27 µM in experiment [5] and 9.9 µg/mL in experiment [6].

For `Cc1ncc(-c2ccc(C3=CCN(C(C)C)CC3)nc2)cc1NC(=O)c1ccc2[nH]c(C)c(C)c2n1`, in experiment [7], the IC50 came out at 0.002 µM.

On to `COc1ccc(C(=O)Nc2cccc(C(F)(F)F)c2)cc1Nc1nc(-c2cccnc2)c2[nH]ccc2n1`, for which the EC50 in experiment [8] was determined as 0.0093 µM.

Turning to `N[C@H]1C(=O)N[C@@H]2Cc3ccc(c(Cl)c3)Oc3cc4cc(c3O)Oc3ccc(cc3Cl)[C@@H](O)[C@@H]3NC(=O)[C@H](NC(=O)[C@@H]4NC(=O)[C@@H](NC2=O)c2cc(O)cc(c2)Oc2cc1ccc2O)c1ccc(O)c(c1)-c1c(O)cc(O)cc1[C@@H](C(=O)O)NC3=O` [TEICOPLANIN AGLYCON], the IC50 in experiment [9] is 208 µM; in experiment [10], 2.04 µM; in experiment [11], 1.46 µM.

Take `CC(=O)N[C@@H](CO)C(=O)N[C@@H](CCCCN)C(=O)N[C@@H](CC(C)C)C(=O)N[C@@H](CCCNC(=N)N)C(=O)c1nc2ccc(C(=O)N[C@H](C(N)=O)C(C)C)cc2s1` (Ac-SKL[X1]V-NH2): the EC50 amounted to 0.307 µM in [12] and 0.489 µM in experiment [2].

Consider `C1=Nc2ccccc2/C1=C\NNc1nc(Nc2ccccc2)nc(N2CCOCC2)n1`, for which the Kd – broadly, the free concentration of one partner at which half of the binding sites on the other are occupied at equilibrium, for simple one-to-one binding – in experiment [13] was determined as 0.00091 µM.

For `CN(C)Cc1ccc2[nH]c3c(c2c1)Cc1nc(N)ncc1CC3`, the results for the IC50 in [14] and in experiment [15] were 0.0195 µM and 0.0069 µM, respectively.

In [16], `CCC[C@H](NC(=O)[C@@H]1[C@H]2CCC[C@H]2CN1C(=O)[C@@H](NC(=O)[C@@H](NC(=O)c1cnccn1)C1CCCCC1)C(C)(C)C)C(=O)C(=O)NC1CC1` returned an IC50 of 11.6 µM.

Turning to `CCc1c(C)[nH]c2ccc(C(=O)Nc3cncc(-c4ccc(N5C[C@@H](C)O[C@@H](C)C5)nc4)c3)nc12`, in experiment [7], the IC50 was 0.0024 µM.

On to `Nc1ncc2c(n1)Cc1c([nH]c3ccc(-c4ccc(F)cc4)cc13)CC2`, for which the IC50 came out at 0.0733 µM in experiment [14] and 0.0093 µM in experiment [15].

In the case of `CC(=O)N[C@@H](CCC(N)=O)C(=O)N[C@@H](Cc1ccccc1)C(=O)N[C@@H](CCCNC(=N)N)C(=O)c1nc2ccccc2s1`, in experiment [2], the EC50 worked out at 0.00053 µM. In [3], this compound gave an IC50 of 0.052 µM.

With `CCN(CC)CCNC(=O)c1c(C)[nH]c(/C=C2\C(=O)Nc3ccc(F)cc32)c1C` [SUNITINIB], the EC50 in [17] was 2.4 µM; in experiment [18], 2.9 µM.

With `CC(=O)N[C@H]1CC(=O)NCCCC[C@@H](C(=O)N[C@@H](CCCNC(=N)N)C(=O)c2nc3ccccc3s2)NC(=O)[C@H](CC(C)C)NC1=O`, the EC50 in experiment [12] came to 0.104 µM; in [2] it was 0.197 µM. Besides, in [3], inhibition was half-maximal at 0.66 µM (IC50).

`O=C(N[C@H](/C=C/S(=O)(=O)c1ccccc1)CCc1ccccc1)[C@H](Cc1ccccc1)NC(=O)N1CCNCC1` had an EC50 in experiment [1] of 0.035 µM.

As to `CS(=O)(=O)N[C@@H](CCC(N)=O)C(=O)N[C@@H](Cc1ccccc1)C(=O)N[C@@H](CCCNC(=N)N)C(=O)c1nc2ccccc2s1`, in [2], the 50% effective concentration (EC50) was 0.0028 µM.

In the case of `CCCC[C@@H](C=O)NC(=O)[C@H](CC(C)C)NC(=O)[C@H](CC(C)C)NC(C)=O` (Ac-Leu-Leu-[Nle]-aldehyde), in experiment [19], the concentration for a half-maximal effect (EC50) came out at 3.12 µM.
